The values below come from patent publication US5192764A, “Pyrazinone N-oxide nucleosides and analogs thereof” (priority 1991, dated 1993).

The subject of series [1] is herpes simplex. The settings on record: literature; comparable to 5-iodo-2'-deoxyuridine; cited from earlier work.
Series [2] concerns vaccinia viruses. The conditions noted are these: literature; comparable to 5-iodo-2'-deoxyuridine; cited from earlier work.
Series [3] deals with bacterial cells. The conditions noted are these: literature; cited from earlier work.
For series [4], the system named is HSV-1 (KOS strain). In words: Plaque reduction method, anti-HSV-1 (KOS strain). It counts as cell-based. The conditions noted are these: for activity at 1 µM: Human alphaherpesvirus 1, 1 uM; for activity at 1 µM / activity at 5 µM / activity at 25 µM / activity at 100 µM: read-out: Plaque Forming Units, % of Control; for activity at 5 µM: Human alphaherpesvirus 1, 5 uM; for activity at 25 µM: Human alphaherpesvirus 1, 25 uM; for activity at 100 µM: Human alphaherpesvirus 1, 100 uM; for antiherpes activity (in words): data of Table 1. As for the experimental part:
Antiviral (HSV) activities of 1-(2'-Deoxy-B-D-ribofuranosyl)-2-pyrazinone-4-N-oxide (A in table 1) and the corresponding 1-(2'-Deoxy-B-D-ribofuranosyl)-5-methyl-2-pyrazinone-N-oxide and 1-(2,-Deoxy-B-D-ribofuranosyl)-5-ethyl-2-pyrazinone-4-N-oxide (respectively, B and C of table 1) were determined according to the procedure described in Gao, et al., Antimic. Agents Chem., 34, 808 (1990), using the plaque reduction method. Table 1 indicates the relative antiviral activities of the three derivatives against HSV-1 (KOS strain).

For series [5], the system named is leukemic L1210 cells. The conditions noted are these: literature; cited from earlier work.
Series [6] deals with HSV-1 (KOS strain). In words: Virus Yield Method against HSV-1 (KOS strain). The class given is cell-based. The settings on record: for IC90: Human alphaherpesvirus 1, read-out: ID90 (the source's name).
In series [7] the test system is HSV-1 KOS (PMEAr). Put plainly: Plaque Reduction Method against HSV-1 KOS 9-(2-phosphonylmethoxyethyl)-adenine resistant strain. It counts as cell-based. The conditions noted are these: Human alphaherpesvirus 1, read-out: ID50. As for the experimental part: (§1) Using the Plaque Reduction Method, activity against HSV-1 KOS Phosphono formate resistant (PFAr) and KOS 9-(2-Phosphonylmethoxyethyl)-adenine resistant (PMEAr) strains was assessed.
(In a plaque reduction assay, fewer plaques than in the control indicate reduced infectivity or spread.)

Series [8] relates to leukemia L1210 cells. In words: Cytotoxicity against leukemia L1210 cells. The class given is cell-based. The conditions noted are these: up to a concentration of 2×10^-3. As for the experimental part:
(§2) Compounds B and C were tested for cytotoxicity against leukemia L1210 cells up to a concentration of 2×10^-3 according to the method described in Bobek and Bloch, J. Med. Chem., 20, 458, 1977. In addition, these compounds were tested for cytotoxicity against a human T-cell lymophoblast cell line (CEM) according to the method of Vazquez-Padua, et al., Cancer Comm., 2, 55-62 (1990) with the exception that the cell line was different, to assay the cells, the cells were counted with a cell counter and the cells were incubated for 4 days instead of for 3 days.

Series [9] has as its system HSV-1 KOS (PFAr). Put plainly: Plaque Reduction Method against HSV-1 KOS phosphonoformate resistant strain. The class given is cell-based. The conditions noted are these: Human alphaherpesvirus 1, read-out: ID50. As for the experimental part: as §1
Series [10] deals with HSV-2 (333). In words: Virus Yield method against HSV-2 (333). The class given is cell-based. The conditions noted are these: Human alphaherpesvirus 2, read-out: ID90 (the source's name).
For series [11], the system named is thymidine phosphorylase. In words: Breakdown by human liver thymidine phosphorylase. It counts as biochemical. The conditions noted are these: enzyme from human liver. The text has this: Compound C was also examined against thymidine phosphorylase obtained from the human liver using standard methodology.
Series [12] relates to human T-cell lymophoblast cell line (CEM). Put plainly: Cytotoxicity against human T-cell lymphoblast cell line (CEM). It counts as cell-based. The settings on record: CEM cells, 4 days incubation. As for the experimental part: as §2
Assay in series [13]: as above
It counts as cell-based. The conditions noted are these: human; CEM cells, 4 days incubation; read-out: cytotoxicity ID50. As for the experimental part:
as §2

The subject of series [14] is EBV. In words: Anti-EBV activity, EBV DNA in high EBV producer cell line. The class given is cell-based. The conditions noted are these: EBV DNA in Hl subclone of P3HR-1 cells, EBV DNA probe BAMH IM. As for the experimental part: In particular, when EBV DNA was assessed in a high EBV producer cell line (Hl, which is a subclone of P3HR-1 cells of Burkitt's lymphoma cell line), Compound C evidenced anti-EBV activity. The methodology employed in the EBV assay is similar to the method of Foster, et al., Jour. Biol. Chem., 266, 238, (1991), except that the EBV DNA was assessed with an EBV DNA probe BAMH IM.

The subject of series [15] is Varicella Zoster (VZV). In words: Anti-VZV activity (Virus Yield) in HLF human cell line. The class given is cell-based. The text has this:
As tested, using the above-described methodology, luM of Compound C inhibited 90% of the Virus Yield.

With `CCc1cn([C@H]2C[C@H](O)[C@@H](CO)O2)c(=O)[nH]c1=O` [5-ethyl-2'-deoxyuridine], the “activity against herpes simplex” value in series [1] was “significant activity”. In addition, the “activity against vaccinia viruses” value in series [2] is “significant activity”.
`O=c1c[n+]([O-])ccn1[C@H]1C[C@H](O)[C@@H](CO)O1` [A, 1-(2'-Deoxy-B-D-ribofuranosyl)-2-pyrazinone-4-N-oxide]: the “antibacterial / antimicrobial activity” value in series [3] is recorded as “significantly more effective as an antimicrobial agent than the riboside”. Moreover, in series [4], the activity at 1 µM came out at 100%, the activity at 5 µM is 100%, the activity at 25 µM worked out at 100% and the activity at 100 µM was determined as 100%. The “antiherpes activity (in words)” value in series [4] was “inactive”. Moreover, the “activity against leukemic L1210 cells” value in series [5] was “essentially inactive”.
`Cc1cn([C@H]2C[C@H](O)[C@@H](CO)O2)c(=O)c[n+]1[O-]` [Compound B, 1-(2'-Deoxy-B-D-ribofuranosyl)-5-methyl-2-pyrazinone-N-oxide]: in series [6], the IC90 amounted to 1800 nM. Also, the IC50 in series [7] is 600 nM. The “antibacterial / antimicrobial activity” value in series [3] is given as “only marginally active”. Besides, the cytotoxicity entry in [8] is given as “significant cytoxtoxicity”. Besides, the IC50 in [9] came out at 1400 nM. In [10], the IC90 amounted to 3000 nM. Also, in [4], the activity at 1 µM worked out at 100%, the activity at 5 µM is 39%, the activity at 25 µM amounted to 0.91% and the activity at 100 µM was 0.09%. For the same compound, the “antiherpes activity (in words)” value in series [4] is listed as “significant antiherpes activity”. For the same compound, in series [5], the “activity against leukemic L1210 cells” value was “significantly more active”.
Turning to `CCc1cn([C@H]2C[C@H](O)[C@@H](CO)O2)c(=O)c[n+]1[O-]` [Compound C, 1-(2-Deoxy-B-D-ribofuranosyl)-5-ethyl-2-pyrazinone-4-N-oxide], the IC90 in series [6] worked out at 2800 nM. In addition, in [11], the “substrate of thymidine phosphorylase” value was “substrate of the enzyme”. The “rate of breakdown by the enzyme relative to thymidine” value in [11] (compared with thymidine) is listed as “much less than the rate or breakdown of thymidine”. Moreover, the IC50 in series [7] is 1000 nM. The “cytotoxicity relative to Compound B” value in series [12] is “significantly less toxic than Compound B”. Further, in [13], the CC50 at 96 h is over 400000 nM. Besides, in [8], the cytotoxicity result is given as “virtually no cytotoxicity”. The anti-EBV activity result in series [14] is on record as “significant anti-EBV activity”. The “activity against VZV (in words)” value in series [15] is reported as “significant activity”. The “inhibition of Virus Yield” value in series [15] (luM) worked out at 90%. Moreover, the IC50 in [9] came to 3400 nM. In addition, the IC90 in series [10] is 2000 nM. In series [4], the activity at 1 µM came to 100%, the activity at 5 µM came to 55%, the activity at 25 µM stood at 4.5% and the activity at 100 µM was determined as 0.3%. The “antiherpes activity (in words)” value in [4] is given as “significant antiherpes activity”. In series [4] (Human alphaherpesvirus 1, plaque reduction), a half-maximal response (EC50) required 6000 nM.
As to `Nc1nc2c(ncn2COCCO)c(=O)[nH]1` [acyclovir, reference compound], in series [6], the “ID90 of ACV relative to Compound C (fold higher)” value was “approximately 7 fold” and the IC90 was determined as 14000 nM. Moreover, the IC50 in series [9] was determined as 6200 nM.
Turning to `O=c1c[n+]([O-])ccn1[C@@H]1O[C@H](CO)[C@@H](O)[C@H]1O` [riboside of 2-pyrazinone-4-N-oxide, reference compound], in series [3], the “antibacterial / antimicrobial activity” value is reported as “antibacterial activity”.
